Measured values as given in patent US10242153B2, “Method for determining the risk profile of neoplastic tissue” (NOVAZOI THERANOSTICS, priority 2014, dated 2019).

Legend:
HeLa cells = assay: Peak subG1 fraction by flow cytometry after declustering drugs, HeLa cells; format: cell-based
Protocol: (§1) To evaluate the impact of putative declustering drugs on cell cycle progression and hypodiploidy (<2N DNA content, which may indicate apoptotic cells), MDA-MB-231 (231), PC3, and HeLa cells were treated with different concentrations of declustering drugs, stained with propidium iodide, labeled with anti-MPM2 antibody, and then assessed by flow cytometry at multiple time points over 48 hr. […] The duration, highest degree, and rapidity of onset of MA varied between drugs, drug concentrations, and cell lines (data not shown). In general, the maximum MA achieved was less pronounced in Nos- and PJ-treated cells. Drug-induced onset of MA was corroborated by substantial increases in cyclin B1 levels in all cell lines. For most cases, prolonged MA (˜24 hr in duration) was followed by a substantial increase in the subG1 population fraction. […] Instances where the subGl fraction was elevated without cleaved caspase-3 may either represent caspase-independent cell death or the presence of hypodiploid cells whose fate is unclear. In general, no consistent associations between the extent, duration, or timing of MA within drugs or across cell lines was found.

PC3 cells = assay: Peak subG1 fraction by flow cytometry after declustering drugs, PC3 cells; format: cell-based
Protocol: as §1

[1] = tested on: adult human dermal fibroblasts (HDFs); assay: Peak subG1 fraction after declustering drugs, non-malignant HDFs; format: cell-based; conditions: for Peak subG1 percents over 48 h: HDF; for death in cancer cell lines vs. HDFs: both concentrations
Protocol: as §1
(§2) To determine whether the CA-inducing activity of declustering drugs is restricted to cancer cells, two non-malignant cell lines, mammary fibrocystic (MCF10A) cells and adult human dermal fibroblasts (HDFs) were treated with these drugs. […] In comparison, 10 and 25 µM RBN increased peak CA over controls in interphase cells (p<0.001 and p=0.001, respectively), with the lower concentration dramatically augmenting peak CA to 56% of cells versus 15% for the higher dose (FIG. 13, panel B).
In HDFs, all the drugs tested increased peak subG1 over controls in a significant fashion (p<0.01 for all) (Table 2). […] Thus, it appears that there may be clinically relevant therapeutic windows for these drugs depending on the type of cancer and the drug dosage.

[2] = tested on: mammary fibrocystic (MCF10A) cells; assay: Peak subG1 fraction after declustering drugs, non-malignant MCF10A cells; format: cell-based; conditions: for peak subG1 percent compared to controls: MCF10A cells; for Peak subG1 percents over 48 h: MCF10A
Protocol: as §1, §2
Importantly, a therapeutic window exists for several of these agents at the concentrations and in the cell lines tested compared to cancer cells.

MCF10A cells = assay: Centrosome amplification (CA) by microscopy, MCF10A cells; format: cell-based
Protocol: (§3) Consequently, CA was assessed in cultures treated with different concentrations of declustering drugs for 6, 12, 18, or 24 h and untreated controls via microscopy. Centrosomes were identified by γ-tubulin and centrin-2 colocalization at discrete foci.
as §2

[3] = tested on: adult human dermal fibroblasts (HDFs); assay: Centrosome amplification (CA) by microscopy, HDFs; format: cell-based; conditions: for peak CA: interphase HDFs
Protocol: as §3, §2

[4] = tested on: MDA-MB-231 (231), PC3, and HeLa cells; assay: Mitotic arrest (MA) metrics by flow cytometry (anti-MPM2) across cell lines; format: cell-based
Source text: FIG. 10 depicts mitotic arrest metrics across cell lines for each declustering drug. […] A lack of box in the plot occurs when the median is very close (or equal) to the inter-quartile range limits, in which case notch is shown with a default height and starting point of whisker line extension indicates 25% or 75% position. Because the coarse-grained data are integers and the size of the data sets are small (n<8), in some cases the median, lower or upper inter-quartile range values, or the max or min values, may coincide in some combination. This figure broadly visualizes clustering and correlation in the coarse-grained data. For instance, non-integer values have no intrinsic meaning but, for instance, a median value of 4.4 indicates a concentration of categories recorded in categories 4 or 5. […] TRH=“time reach highest” value; CTP=“consecutive time points,” MA_totCTP=sum(MA_SnCTP for n=2 . . . 5).
To evaluate the impact of putative declustering drugs on cell cycle progression and hypodiploidy (<2N DNA content, which may indicate apoptotic cells), MDA-MB-231 (231), PC3, and HeLa cells were treated with different concentrations of declustering drugs, stained with propidium iodide, labeled with anti-MPM2 antibody, and then assessed by flow cytometry at multiple time points over 48 hr. […]

N1E-115 cells [5] = assay: Interphase declustering index (DI) in N1E-115 cells; format: cell-based, murine; conditions: 6-h treatment, 25 interphase cells, drugs at their respective IC50 concentrations
Protocol: To evaluate their effect on interphase clustering, N1E-115 cells were treated with these drugs at their respective IC50 concentrations for 0, 3, 6 and 9 h and co-immunostained for γ-tubulin and α-tubulin to evaluate centrosomal spread and microtubule nucleation status, respectively.
Cell cycle phases were further evaluated via lamin A/C immunostaining to distinguish interphase declustering events from prophase centrosomal spread. To quantitate the spread of the interphase centrosomal cluster, a 3D reconstruction of z-stack images of 25 randomly-selected interphase cells from the 6-h treatment group of each drug were generated. By defining an ROI (region of interest) around the interphase centrosomal cluster, the volume of the cluster spread was calculated using Volocity software. Likewise, defining an ROI using the cell periphery provided the cell volume.

N1E-115 cells [6] = assay: Golgi (GM130) and γ-tubulin co-immunostaining of drug-treated N1E-115 cells; format: cell-based, murine; conditions: data not shown
Source text: The Golgi, which is primarily responsible for posttranslational modification and protein sorting, also functions as a microtubule-organizing center (MTOC). It has been hypothesized that supernumerary centrosomes may better organize the Golgi to enhance directional cell migration. To investigate what happens to the Golgi upon declustering drug-induced dispersal of the interphase centrosomal cluster, drug-treated N1E-115 cells were co-immunostained with GM130 (a cis-Golgi matrix protein crucial for maintaining its structure) and γ-tubulin.

N1E-115 cells [7] = assay: Vinculin localization in serum-starved N1E-115 cells; format: cell-based, murine; conditions: serum-starved (SS) cells
Source text: Vinculin stabilizes cell-substrate contacts in neuronal cells undergoing neuritogenesis, while activation by actin-binding proteins mobilizes vinculin to focal adhesions. To determine the localization of vinculin in the neurite extensions and the effect of declustering agents on its localization, N1E-115 cells were immunostained cells for vinculin and stained F-actin using rhodamine-phalloidin.

N1E-115 cells [8] = assay: Ki67 and cleaved caspase-3 immunostaining of serum-starved N1E-115 cells; format: cell-based, murine; conditions: RedBr-Nos 5 μM, Griseofulvin 10 μM, PJ-34 10 μM

Compound | Peak subG1 percents over 48 h (HeLa cells; 10 μM) [%] | maximum (peak) subG1 fraction relative to control (HeLa cells; 10 μM) [× control] | Peak subG1 percents over 48 h (HeLa cells; 25 μM) [%] | Peak subG1 percents over 48 h (PC3 cells; 10 μM) [%] | Peak subG1 percents over 48 h (PC3 cells; 25 μM) [%] | Peak subG1 percents over 48 h ([1]; 10 μM) [%] | Peak subG1 percents over 48 h ([1]; 25 μM) [%] | death in cancer cell lines vs. HDFs [1] | peak subG1 percent compared to controls [2] | Peak subG1 percents over 48 h ([2]; 10 μM) [%] | Peak subG1 percents over 48 h ([2]; 25 μM) [%] | interphase declustering index (DI): ratio of average cluster volume to average cell volume (N1E-115 cells [5]) | fragmentation of the interphase Golgi complex (N1E-115 cells [6]) | vinculin localization and focal adhesion points (N1E-115 cells [7]) | Ki67-positive cells (N1E-115 cells [8]) | other results
CN(C)CC(=O)Nc1ccc2[nH]c(=O)c3ccccc3c2c1 [PJ, PJ-34] | 48.5 | 4.8 | 64.4 | 62.4 | 48.4 | 13.6 | 28.2 | more death in all cancer cell lines vs. HDFs | did not cause a significant increase | 6.9 | 9.1 | 0.14 | interphase Golgi complex fragmented | less severe | high proportion of Ki67-positive cells | peak extent of CA (MCF10A cells; interphase MCF10A cells, 10 μM): 8 % of cells; peak extent of CA versus controls (MCF10A cells; interphase and mitotic MCF10A cells, 25 μM): increased the peak extent of CA in interphase and mitotic cells; extent of CA over controls ([3]; HDFs, any of the concentrations or time points assessed): no significant impact on CA; mean time to peak MA (MA:TRH) ([4]; coarse-grained categories): ~12 h
reduced-9-bromonoscapine [RBN] | 54.1 | 9 | 75.6 | 80.7 | 73.0 | 35.9 | 39.9 | more death in 231 cells | did increase peak SubG1 | 36.4 | 44.0 | 0.36 | most robust effect | complete internalization of vinculin and complete loss of focal adhesion points | high proportion of Ki67-positive cells | maximum (peak) subG1 fraction relative to control (PC3 cells; 10 μM): 8 × control; peak subG1 / toxicity in MCF10A cells versus cancer cell lines ([2]; 10 μM): smaller peak subG1 in MCF10A cells as compared to 231 cells; susceptibility / toxicity in MCF10A cells versus cancer cell lines ([2]; 25 μM): much greater increases in toxicity to 231 and PC3 cells; CA / peak extent of CA versus control levels (MCF10A cells; interphase and mitotic MCF10A cells, both concentrations (10 and 25 μM), over 24 h): significantly increased the peak extent of CA; peak CA ([3]; 10 μM): 56 % of cells; peak CA ([3]; 25 μM): 15%; extent of CA ([3]; mitotic HDFs, 10 μM): 10%; extent of CA versus controls ([3]; mitotic HDFs, 25 μM): Only 10 but not 25 μM RBN increased the extent of CA in mitotic cells; peak MA (MA:HR), cells in MA ([4]; category near "4"): ≥ 30%
